Experiment [1] relates to neurons derived from HD patient-iPS cells. Briefly: Mitochondrial and neuronal morphology in neurons derived from iPS cells. The format is cell-based, human. As to the method:
iPS cells from a normal subject and a HD patient (carrying 41 CAG repeats) were differentiated into neurons using the protocol from our previous studies. Briefly, the iPS cells were plated onto 6-well plates precoated with 2.5% Matrigel and allowed to reach 90% confluence in feeder-free medium. For the first 10 days, the cells were treated with SB431542 (10 μM; Tocris Bioscience) and Noggin (100 ng/ml) in Neural Media (NM) containing Neurobasal and DMEM (1:1), B-27 supplement minus vitamin A (50×, Invitrogen), N2 supplement (100×, Invitrogen), GlutaMax (Invitrogen, 100×), FGF2 ([…]) and EGF ([…]), and 100 units/ml penicillin and 100 μg/ml streptomycin). For the next 10 days, the cells were treated with human recombinant Sonic hedgehog (SHH, 200 ng/ml), DKK1 (100 ng/ml) and BDNF (20 ng/ml), and 10 μM Y27632 (Sigma) in neuronal differentiation medium containing Neurobasal and DMEM (1:3), B27, N2, GlutaMax, and PS. Cells were then switched to treatment with BDNF (20 ng/ml), ascorbic acid (200 μM, Sigma-Aldrich), cAMP (0.5 mM, Sigma-Aldrich), and Y27632 (10 μM) in neuronal differentiation medium. All growth factors were purchased from PeproTech (Rocky Hill, NJ, USA). Twenty days after the initiation of differentiation, the neurons (about 5000 cells) were plated onto 12-mm poly-Dlysine/laminine-coated coverslips and grown in 24-well plates in neuronal differentiation medium.
Neurons derived from iPS cells were stained with anti-Tom20 (a mitochondrial marker) and anti-GAD67 (a striatal neuronal marker). Quantitation of mitochondrial length along the neurites was conducted only in the neurons immuno-positive for GAD67. To analyze dendrite and axon outgrowth of neurons, cells were stained with anti-MAP2 (a dendritic marker) and anti-GAD67 or anti-Tau (an axonal marker) and anti-DARPP32 (a medium spiny neuron marker). The length of MAP2+ dendrite and Tau+ axon in the neurons immuno-positive for GAD67 or DARPP32 was quantitated, respectively. At least 50 neurons/group were counted.

For the next experiment, the system named is mtDNA. The experiment in a line: Measurement of mtDNA lesion by quantitative PCR. The format is cell-based, mouse. The conditions noted are these: HdhQ111 cells, relative to TAT. An excerpt:
Because the movement of the polymerase on the template is blocked at a lesion, qPCR amplification is inversely proportional to the presence of DNA damage. The level of mtDNA lesion will be calculated by comparing the 10 kb mtDNA fragment amplification, as described previously. To correct for the possible variations in the rate of mtDNA replication, the amplification of 10 kb mtDNA fragment was normalized to the 91 bp small mtDNA amplicon. Specifically, Total DNA was isolated as shown above. The amplification profile consisted of a 45-s denaturation at 94° C., 22 cycles of denaturation for 15 s at 94° C., annealing/extension at 64° C. for 12 min, and a final extension at 72° C. for 10 min.

The next experiment has as its system HD R6/2 mice. Briefly: Body weight, survival and behavior in HD R6/2 mice. The format is in vivo, mouse. As to the method: Male R6/2 mice and their wild-type (WT) littermates (5 weeks old) were purchased from Jackson Laboratories [Bar Harbor, ME; B6CBA-TgN (HD exon1) 62; JAX stock number: 006494]. These mice (C57BL/6 and CBA genetic background) are transgenic for the 5′ end of the human HD gene carrying 100-150 glutamine (CAG) repeats.
(§1) Systemic peptide treatment in HD mice. All randomization and peptide treatments were prepared by an experimenter not associated with behavioral and neuropathology analysis. Male R6/2 mice (Tg) and their age-matched wild-type littermates (Wt) (6-week-old) were implanted with a 28-day osmotic pump (Alzet, Cupertino CA, Model 2004) containing TAT control peptide or DA1 peptide, which delivered peptides at a rate of 1 mg/kg/day. Male YAC128 mice (Tg) and their age-matched wild-type littermates (WT) were treated with TAT control peptide or DA1 peptide (1 mg/kg/day) by Alzet osmotic pump starting from the age of 3 months. The pump was replaced once every month.
Gross locomotor activity was assessed in R6/2 mice and age-matched wild-type littermates at the ages of 12 weeks, and in YAC128 mice and age-matched wildtype littermates at the ages of 2, 3, 6, 9, and 12 months. The mice were placed in the center of an activity chamber (Omnitech Electronics, Inc) and allowed to explore while being tracked by an automated beam system (Vertax, Omnitech Electronics Inc). Distance moved, horizontal and vertical activities were recorded. In R6/2 mice and wildtype littermates, one-hour locomotor activity was conducted. In YAC128 mice and wildtype littermates, 24 h of locomotor activity analysis was performed.
Hindlimb clasping was assessed with the tail suspension test once a week from the ages 8 to 12 weeks in R6/2 mice. The mice were suspended by the tail for 60 s, and the latency for the hindlimbs or all four paws to clasp was recorded using the score system: Clasping over 10 s, score 3; 5-10 s, score 2; 0-5 s, score 1; and 0 s, score 0.
The body weight and survival rate of HD mice and wild-type littermates were recorded throughout the study period.

Another experiment concerns Drp1. Briefly: Drp1 mitochondrial level and Drp1 oligomerization in striatum of treated HD mice. The format is in vivo, mouse. The conditions noted are these: for Drp1 translocation to the mitochondria: 1 mg/kg/day. As to the method: Cells were washed with cold phosphate-buffered saline (PBS) and incubated on ice in mitochondrial lysis buffer (250 mM sucrose, 20 mM HEPES-NaOH, pH 7.5, 10 mM KCl, 1.5 mM MgCl2, 1 mM EDTA, 1 mM EGTA, protease inhibitor cocktail, and phosphatase inhibitor cocktail) for 30 min. The cells were scraped and then disrupted 15 times by repeated aspiration through a 25-gauge needle. Mouse brains were minced and homogenized in mitochondrial lysis buffer to release mitochondria. The homogenates were spun at 800×g for 10 min at 4° C., and the resulting supernatants were spun at 12,000×g for 20 min at 4° C. The pellets were washed with lysis buffer and spun at 12,000×g again for 20 min at 4° C. The final pellets were suspended in lysis buffer containing 1% Triton X-100 and were mitochondrial-rich lysate fractions. The mitochondrial protein voltage-dependent anion channel (VDAC) was used as a loading control.
Protein concentration was measured by protein assay dye reagents (Bio-rad). The protein was resuspended in Laemmli buffer, loaded on SDS-PAGE, and transferred onto nitrocellulose membranes. Membranes were probed with the indicated antibodies, followed by visualization with ECL. Representative blots have been cropped for presentation.
as §1

Where [2] appears, read: striatal neurons derived from HD patient iPS cells.
Where [3] appears, read: R6/2 mice at the age of 12 weeks.

Where no end group is shown, it is not given here.

As for “YGRKKRRQRRRGGEDKRKT-NH2 [DA1, YGRKKRRQRRR-GG-EDKRKT-NH2]”, the mitochondrial morphology result in experiment [1] (cells derived from iPS cells of normal subject) is “no observed effects”. In addition, the “length of mitochondria along the neurites of GAD67+-neurons” value in experiment [1] (neurons derived from HD patient-iPS cells) is reported as “increased”. In experiment [1] (setting [2]), the “MAP2+ dendritic outgrowth” value is “improved” and the “Tau+ axonal outgrowth” value is on record as “improved”. The mtDNA lesion result with mtDNA was “diminished”. Further, in the experiment with HD R6/2 mice (HD R6/2 mice, 1 mg/kg/day from 6 weeks, vs TAT), the body weight loss result is “moderately suppressed”. Also, the survival result with HD R6/2 mice (HD R6/2 mice, age 6 to 21 weeks, 1 mg/kg/day) is recorded as “greatly prolonged”. Further, in the experiment with HD R6/2 mice (setting [3]), the horizontal activity entry is given as “increased” and the total traveled distance entry is reported as “increased”. For the same substance, the “severity of clasping behavior” value with HD R6/2 mice (R6/2 mice, four-week observation period) is “reduced”. Moreover, the “Drp1 translocation to the mitochondria” value with Drp1 (striatum of HD R6/2 mice) was “abrogated”. Further, the Drp1 polymerization entry with Drp1 (striatum of HD R6/2 mice, 12 weeks old) is “abrogated”. Moreover, the “Drp1 translocation to the mitochondria” value in the experiment with Drp1 (striatum of HD YAC128 mice) is “abrogated”. The Drp1 polymerization entry with Drp1 (striatum of HD YAC128 mice, 12 months old) is “abrogated”.

The values above are taken from US12403184B2, “Compositions and methods for treating neurodegenerative disroders” (priority 2018, dated 2025).
